The text below walks through data of US20250044246A1, “NUCLEAR MAGNETIC RESONANCE METHODS OF DETERMINING HOMEOSTATIC PERTURBATIONS” (The United States of America, as represented by the …, priority 2021, published 2025).

Several values for one entry are separate records, joined by “and”; a condition that tells them apart may be missing. Identical values can stand only once. Entries after “also recorded” stand apart in the source; their conditions may differ.

Experiment [1] relates to viable "live" ex vivo neonatal mouse spinal cords. Nature of the experiment: Real-time SG diffusion and SG-DEXSY measurements on viable spinal cords (Example 3). Type of experiment: cell-based. The protocol:
MR measurements were performed on viable “live” ex vivo neonatal mouse spinal cords at 13.79 MHz with a low-field single-sided magnet (PM-10 NMR MOUSE, Magritek) (Eidmann, et al., Journal of Magnetic Resonance, Series A, 122(1): 104-109 (1996)) and custom-made RF probe and solenoid coil (see FIG. 29). Diffusion was encoded on sub-micron length scales and sub-millisecond timescales with spin echoes in the presence of a g=15.3 T/m static gradient (SG) (Williamson, et al., Proceedings of the 28th annual International Society of Magnetic Resonance in Medicine (ISMRM) (2020)). SG diffusion measurements (Williamson, et al., Elife, 8: p. e51101 (2019)) and SG diffusion exchange spectroscopy (DEXY)-based exchange rate and spin-lattice relaxation rate measurements (as in Williamson, et al., Journal of Magnetic Resonance, 317: 106782 (2020)), with b1+b2=4.5 ms/μm^2) were repeatedly acquired (11 minutes per set) to observe real-time changes. During measurements, samples were maintained in a constant circulation of artificial cerebrospinal fluid (ACF) and gas and at 25° C.

A further experiment has as its system fixed spinal cords. The experiment in a line: Osmolarity perturbation with sucrose, diffusion and DEXSY NMR on fixed spinal cords. The arrangement: species or system mouse. How it is done: (§1) All experiments were performed on Swiss Webster wild type (Taconic Biosciences, Rensselaer, NY, USA) mice between postnatal day 1 to 4. The mouse spinal cords were isolated and placed in a dissecting chamber perfused with cold low-calcium high magnesium artificial cerebrospinal fluid (aCSF, concentrations in mM: 128.35 NaCl, 4 KCl, 0.5 CaCl2·2H2O, 6 MgSO4·7H2O, 0.58 NaH2PO4·H2O, 21 NaHCO3, 30 D-glucose) bubbled with 95% O2 and 5% CO2). Live spinal cords were transported in low-calcium, high-magnesium aCSF to the NMR experimental apparatus. Fixed spinal cords were kept overnight in 4% paraformaldehyde at 4° C. and then stored in phosphate buffered saline (PBS) at 4° C., and washed with aCSF three times over the course of two days to remove any residual paraformaldehyde prior to experiments. Experiments on fixed and live spinal cords were performed using normal aCSF (same concentrations as the low-calcium high-magnesium solution except for 1.5 mM CaCl2·2H2O and 1 mM MgSO4·7H2O).
(§2) Diffusion experiments were performed using a standard sequence involving a spin echo (SE) for diffusion encoding followed by a CPMG signal acquisition (Rata, et al., Journal of Magnetic Resonance, 180(2): 229-235 (2006). τ (defined as half the SE echo time) was varied linearly from 0.05 to 3.3 ms over 22 steps with 4 scans per τ. This corresponds to b-values ranging from 0.001 to 400 ms/μm^2 where b=2/3γ^2g^2τ^3 (Carr, et al., Physical Review, 94(3): 630 (954), Hahn, Physical Review, 80(4): 580 (1950)). Points two through four (τ=0.2048 to 0.5143 ms, b=0.096 to 1.5 ms/μm^2) of diffusion data were fit with I(b)=I0 exp(−b ADC) to estimate the Apparent Diffusion Coefficient and I0. For measurements on spinal cords, the term ADCy is used, acknowledging that diffusion may be anisotropic but was measured only in the y direction, perpendicular to the cord.
(§3) to estimate the restriction radius r and the restricted fraction f. Each estimate incorporated k measured from the rapid exchange experiment during the same set. […]

The test system of another experiment is live spinal cords. Nature of the experiment: Osmolarity perturbation with sucrose, diffusion and DEXSY NMR on live spinal cords. The format is cell-based, mouse. To be noted: +300 mM sucrose, live samples. The protocol:
as §1, with “MgSO4·7H2O). […]” for “MgSO4·7H2O).”
as §3

The test system of experiment [2] is live ex vivo neonatal mouse spinal cords. Nature of the experiment: Real-time DEXSY NMR water exchange rate and R1 DW on live spinal cords (Example 1). Type of experiment: cell-based. Conditions: 100 μM ouabain. The protocol: as §1
A PM 10 NMR MOUSE single-sided permanent magnet (Eidmann, et al., Journal of Magnetic Resonance, 122: 104-109 (1996)) (Magritek, Aachen Germany) and a Kea 2 spectrometer (Magritek, Wellington, New Zealand) were used to perform NMR experiments at B0=0.3239 T (proton ω0=13.79 MHz) and […]. A test chamber and RF probe were fabricated to maximize SNR and maintain live spinal cord viability.
Sample temperature was controlled by heat exchange with one of two circulating water baths (Accel 250 LC, Thermo Scientific, USA, and WCR-P6 Precision Regulated Bath Circulator, Daihan Scientific, Lennox Laboratory supplies, Ireland). […] Sample temperature was monitored by a fiber optic sensor (PicoM, Opsens Solutions Inc., Quebec, Canada). […]
Experimental protocols involved looping through sets of diffusion experiments and rapid DEXSY experiments to acquire repetitions of each. Noise and RF probe tuning were monitored at the beginning of each loop. […]
as §3

For experiment [3] the test system is unchanged. Nature of the experiment: Static-gradient spin echo diffusion NMR (ADCy, restricted fraction f) on live spinal cords (Example 1). Type of experiment: cell-based. How it is done:
as §1
The same experimental conditions were used for live and fixed spinal cords. […]
as §2, with “cord. […]” for “cord.”
as §3

A further experiment concerns Na+/K+-ATPase. To be noted: cited from earlier work.
Experiment [4] has as its system ex vivo neonatal mouse spinal cords. The experiment in a line: Multiexponential analysis of DEXSY exchange time distribution P(τk) (Example 5). Type of experiment: cell-based. Conditions: 100 μM ouabain, 25° C., live tissue. The protocol:
The probability distribution functions of the exchange time were measured, P(τk)=P(1/k) by applying multi exponential analysis using numerical inverse Laplace transforms (ILTs) to data in which the effect of exchange has been isolated. Using a low-field, static gradient system, P(τk) data were acquired from ex vivo neonatal mouse spinal cords in three conditions: fixed, live, and live whilst treated with ouabain, a sodium-potassium pump inhibitor.
The static gradient DEXSY (SG-DEXSY) pulse sequence was implemented on a PM-10 NMR MOUSE single-sided magnet at ω0=13.79 MHz, B0=0.3239 T, g=15.3 T/m with a home-built solenoid RF coil and test chamber. 90°/180° RF pulse lengths=2/2 μs, pulse powers=−22/−16 dB, TR=2 s, 8000 echo CPMG train with TE=25 μs, 8 points per echo, and 0.5 μs dwell time.
Live (i.e., viable) and fixed ex vivo neonatal (postnatal day 1-4) mouse spinal cords were studied. Spinal cords were bathed in artificial cerebrospinal fluid at 95% O2/5% CO2 and 25° C. For the ouabain treatment condition, ouabain was added at a saturating concentration of 100 μM.
Data were acquired at bs=4.5 ms/μm^2 over 69 values of tm=0.2-1000 ms. A biexponential fit to the log-ratio of signals was first performed to yield robust estimates of the intercept C0 and limit f∞/C1 (FIGS. 35A-35D). […]

For a further experiment, the system named is organotypic CNS. Conditions: after blocking Na+/K+ pump with ouabain; cited from earlier work.
Where [5] appears, read: normal vs +300 mM sucrose, n=2 fixed samples.

`OC[C@H]1O[C@@](CO)(O[C@H]2O[C@H](CO)[C@@H](O)[C@H](O)[C@H]2O)[C@@H](O)[C@@H]1O` [sucrose]: the “exchange rate recovered to, in ouabain-treated state” value in experiment [1] (100 mM sucrose added in ouabain-treated state (5 μM ouabain, FIG. 21), from 50 s^−1) amounted to 150 s⁻¹. The “effect on exchange rate in normal conditions” value in experiment [1] (100 mM sucrose, normal aCSF) was “small effect”. Also, the “change of ADCy” value with fixed spinal cords (+300 mM sucrose, fixed samples) is on record as “increases negligibly”. For the same compound, in the experiment on fixed spinal cords (setting [5]), the “change in exchange rate k” value is “no change” and the “change in restricted fraction” value is “insignificant”. Further, in the experiment on live spinal cords, the “change of ADCy” value is recorded as “increases ADCy significantly”.

For the compound `Cc1onc(O)c1CC(N)C(=O)O` (stereo not drawn) [AMPA, α-amino-3-hydroxy-5-methyl-4-isoxazolepropionic acid], the “effect on exchange rate” value in experiment [1] (5 μM and 10 μM AMPA, n=5) is “decreases; also recorded: causes exchange rate to decrease”. In experiment [1] (AMPA washed out), the “reversibility of the effect on washout” value is on record as “recovers upon washout; also recorded: reversible”. In experiment [1] (second dose of AMPA), the “effect of a second dose on exchange rate” value is “less of an effect”.

Regarding `C[C@@H]1O[C@@H](O[C@H]2C[C@@H](O)[C@]3(CO)[C@H]4[C@H](O)C[C@]5(C)[C@@H](C6=CC(=O)OC6)CC[C@]5(O)[C@@H]4CC[C@]3(O)C2)[C@H](O)[C@H](O)[C@H]1O` [ouabain], the “time until ouabain took effect after treatment” value in experiment [2] is listed as “roughly 10 minutes”. The “exchange rate k after ouabain addition” value in experiment [2] (25° C., n=3, mean (±SD), normal k=140 s^−1) is 36 s⁻¹ and 36 ± 11 s⁻¹. Moreover, the “decrease of diffusion weighted spin-lattice relaxation rate R1 DW” value in experiment [2] (n=3) is reported as 8±3%. Besides, in experiment [3] (100 μM ouabain, n=3), the “decrease of apparent diffusion coefficient” value amounted to 9±1% and the “increase of restricted water fraction f” value worked out at 22±6%. Besides, the ADCy in experiment [3] (ouabain-treated spinal cords, mean±SD, n=3, 25° C.) is 0.954±0.045 μm^2/ms. Further, the “reduction of Na+/K+-ATPase activity” value in the experiment with Na+/K+-ATPase (100 μM ouabain) is 65%. Besides, the “further increase of the effect on Na+/K+-ATPase activity” value with Na+/K+-ATPase (doses higher than 100 μM ouabain) was 6%. In experiment [1] (100 μM ouabain), the “exchange rate after completely blocking Na+/K+ pump” value came out at 50 s⁻¹, the “mean apparent diffusion coefficient” value was “increases”, the restricted volume entry is given as “increases” and the “spin lattice relaxation rate” value is on record as “decreases”. In addition, in experiment [1] (100 μM ouabain), the “time until effect after ouabain hits the sample” value is “roughly 10 minutes” and the “timescale from no effect to full effect” value was “roughly 2 minutes”. In addition, in experiment [1] (100 μM ouabain, n=3), the “decrease in water exchange rate” value came to 67% and the “increase in relative cell volume” value came to 27%. The “dose dependence of effect on exchange rate” value in experiment [1] (1-10 μM vs 100 μM ouabain) is reported as “dose-independent effect; also recorded: all-or-none fashion”. In experiment [1] (doses as low as 1 μM ouabain, after a delay), the “exchange rate after partially blocking Na+/K+ pump” value was 50 s⁻¹. The normalized restricted volume entry in experiment [1] (low (1-10 μM) doses of ouabain) is on record as “not affected”. Moreover, the “time until effect after hitting the sample” value in experiment [1] (low (1-10 μM) doses of ouabain, n=5) was greater than 10 min. Further, the “faster peak of exchange time distribution P(τk)” value in experiment [4] is “reduced”. Moreover, in the experiment on organotypic CNS, the “decrease of steady-state transmembrane water exchange rate” value is reported as 50%.
